Source: patent US20080181971A1, “Combination Cancer Treatments Comprising Elsamitrucin and Other Agents” (priority 2007, published 2008)
“And” between values parts separate entries of the source, which are not always exact repeats. Equal values may be shown once. Read-outs that look alike come from different tables or passages of the source.

Tests used:
Assay type in all cases: cell-based
[1] = system: SKMES human non-small cell lung carcinoma cell line; assay: MTT growth inhibition assay, single agents and fixed-ratio combinations with elsamitrucin (Chou-Talalay, CalcuSyn), SKMES
Procedure: (§1) These individual agents and their combinations were evaluated for in vitro activity against the HT29 colon carcinoma, SKMES non-small cell lung carcinoma, and Daudi B-lymphoblastic cell lines. Cell growth in 96-well microculture plates was determined with a semi-automated MTT assay. Efficacies of drug combinations were analyzed according to the methods of Chou and Talalay, utilizing CalcuSyn software. Twenty-one in vitro experiments were conducted to determine the individual and combined growth inhibitory activities of elsamitrucin and the ten selected agents in the three cell lines.
(§2) b. Cell Lines. The human HT29 colon carcinoma, SKMES non-small cell lung carcinoma, and Daudi B-lymphoblastic cell lines were originally obtained from ATCC (American Type Culture Collection). These cell lines have been maintained and stored as frozen stocks. […] The medium for Daudi cells was additionally supplemented with 1 mM sodium pyruvate.
(§3) c. Growth Inhibition Assay. Anti-proliferative activities against the HT29, SKMES, and Daudi cell lines were evaluated in vitro by the MTT assay. Cells (1,500-2,000 cells/well) were seeded in a 96-well microculture plate in 180 pL of medium/well. […] DMSO was present in all wells at a final concentration of 0.1%. […] When the appropriate cell density was attained in the control wells, the plates were centrifuged briefly, and 100 pL of the growth medium was removed. The cell cultures were incubated with 50 μL of MTT reagent (1 mg/mL in Dulbecco's phosphate-buffered saline) for 4 hr at 37° C. The resultant purple formazan precipitate was solubilized with 200 μL of 0.04 N HCl in isopropanol.
(§4) The results of each experiment were stored in Excel format.
(§5) d. Preliminary Experiments: Design and Data Analysis. […] The initial experiments utilized serial three-fold dilutions of the drugs to produce ten test concentrations over a broad concentration range. Based on the initial results, a narrower concentration range was selected, and serial 1:1.5 dilutions were utilized to produce ten test concentrations. Experiments were repeated as needed.
(§6) For assays that utilized lower dilution factors to produce narrower concentration ranges, the results were analyzed with both Prism and CalcuSyn (as described below) to allow comparison of the IC50 and Da, values. The results guided the selection of appropriate concentration ranges and concentration ratios for the combination experiments.
(§7) e. Combination Experiments: Design and Data Analysis. The fixed-ratio design of Chou was used for the combination experiments. For each experiment, the drug solutions were mixed at a ratio that was expected to provide approximately equipotent concentrations, and the mixture was serially diluted with medium containing 1% DMSO to yield 10× stock solutions of the test concentrations. […] Each agent was tested individually and in combination at seven concentrations. The concentration range selected for each assay was designed to bracket the concentrations that produced half-maximal effects (ED50) with each single agent and their mixture. The concentrations used for the single-drug assays were twice as high as their concentrations in the mixture. Each assay was performed in quadruplicate. For each drug combination, the individual agents and their mixture were assayed on the same 96-well plate. The effects of the individual drugs and their combinations were analyzed by the method of Chou and Talalay. The results of each experiment were entered into CalcuSyn (BIOSOFT) for dose-effect analysis.
(§8) where Acontrol and Adrug are the respective absorbances of vehicle control and drug-treated wells in the MIT assay.
(§9) where the slope, m, is related to the sigmoidicity of the dose-effect curve, with m=1, >1, and <1 indicating hyperbolic, sigmoidal, and reverse sigmoidal shapes, respectively.

[2] = system: Daudi human lymphoma cell line; assay: MTT growth inhibition assay, single agents and fixed-ratio combinations with elsamitrucin (Chou-Talalay, CalcuSyn), Daudi
Procedure: as §1, §2, §3, §4, §5, §6, §7, §8, §9

[3] = system: HT29 human colon carcinoma cell line; assay: MTT growth inhibition assay, single agents and fixed-ratio combinations with elsamitrucin (Chou-Talalay, CalcuSyn), HT29
Procedure: as §1, §2, §3, §4, §5, §6, §7, §8, §9

[4] = Homo sapiens, SPA-02 (SKMES-e22), single agent, dilution 1:3, read-out: Prism IC50
[5] = Homo sapiens, SPA-03 (SKMES-e23), single agent, dilution 1:1.5, read-out: CalcuSyn Dm
[6] = Homo sapiens, SPA-03 (SKMES-e23), single agent, dilution 1:1.5, read-out: Prism IC50
[7] = Homo sapiens, average of preliminary single-agent experiments, SKMES, read-out: Average IC50, Dm value
[8] = Homo sapiens, Daudi, SPA-05 (Daudi-e01), single agent, dilution 1:3, read-out: Prism IC50
[9] = Homo sapiens, Daudi, average of preliminary single-agent experiments, Daudi, read-out: Average IC50, Dm value
[10] = Homo sapiens, HT-29, SPA-01 (HT29-e21), single agent, dilution 1:3, read-out: Prism IC50
[11] = Homo sapiens, HT-29, SPA-04 (HT29-e22), single agent, dilution 1:1.5, read-out: CalcuSyn Dm
[12] = Homo sapiens, HT-29, SPA-04 (HT29-e22), single agent, dilution 1:1.5, read-out: Prism IC50
[13] = Homo sapiens, HT-29, average of preliminary single-agent experiments, HT29, read-out: Average IC50, Dm value

Q: What does the source list for `CC(=O)O[C@H]1C(=O)[C@@]2(C)[C@H]([C@H](OC(=O)c3ccccc3)[C@]3(O)C[C@H](OC(=O)[C@H](O)[C@@H](NC(=O)c4ccccc4)c4ccccc4)C(C)=C1C3(C)C)[C@]1(OC(C)=O)CO[C@@H]1C[C@@H]2O` [Paclitaxel, paclitaxel]?
A: IC50 ([1]; Homo sapiens, SKMES growth inhibition, second agent alone, one value per plate (Experiment ID), read-out: Dm Value (95% Confidence Interval), Individually, Second Agent): 3.5 nM; IC50 ([1]; Homo sapiens, SKMES, single agent on the same plate as the combination, read-out: Dm Value, Individually, Second Agent): 3.5 nM; IC50 [1, 4]: 1.1 nM; IC50 [1, 5]: 2.8 nM; IC50 [1, 6]: 2.6 nM; IC50 [1, 7]: 2 nM; IC50 ([2]; Homo sapiens, Daudi, Daudi growth inhibition, second agent alone, one value per plate, Table 8 (Supplement), read-out: Dm Value (95% Confidence Interval), Individually, Second Agent): 4 nM; IC50 ([2]; Homo sapiens, Daudi, Daudi growth inhibition, second agent alone, Table 8, read-out: Dm Value (95% Confidence Interval), Individually, Second Agent): 4 nM; IC50 [2, 8]: 3.6 nM; IC50 ([2]; Homo sapiens, Daudi, SPA-08 (Daudi-e02), single agent, dilution 1:1.5, read-out: CalcuSyn Dm): 4.1 nM; IC50 ([2]; Homo sapiens, Daudi, SPA-08 (Daudi-e02), single agent, dilution 1:1.5, read-out: Prism IC50): 3.3 nM; IC50 [2, 9]: 4 nM; IC50 ([2]; Homo sapiens, Daudi, read-out: approximate Dm values for the second drugs as single agents): ~4 nM; IC50 ([3]; Homo sapiens, HT-29, HT29, single agent on the same plate as the combination, read-out: Dm Value, Individually, Second Agent): 3.2 nM; IC50 [3, 10]: 1.6 nM; IC50 [3, 11]: 2.3 nM; IC50 [3, 12]: 2.4 nM; IC50 [3, 13]: 2 nM

Q: What does the source list for `CO[C@@H]1[C@@H](N)[C@@H](O[C@H]2[C@H](Oc3cccc4c(O)c5c(=O)oc6ccc(C)c7c(=O)oc(c34)c5c67)O[C@H](C)[C@H](O)[C@]2(C)O)O[C@H](C)[C@@H]1O` [Elsamitrucin, benzo(h)(1)benzopyrano(5,4,3-cde)(1)ebnzopyran-5,12-dione,10((2-O-(2-amino-2,6-dideoxy-3-O-methyl-alpha-D-galactopyranosyl)-6-deoxy-3-C-methyl-beta-D-galactopyranosyl)oxy)-6-hydroxy-1-methyl]?
A: IC50 ([1]; Homo sapiens, SKMES cells, single agent, read-out: average Dm): 22 nM; IC50 ([1]; Homo sapiens, SKMES, single agent, ten assays of Table 5, read-out: average Dm): 22 nM; IC50 ([1]; Homo sapiens, SKMES, single agent, ten assays of Table 5, read-out: range of Dm): 11 to 53 nM; IC50 [1, 4]: 12 nM; IC50 [1, 5]: 25.6 nM; IC50 [1, 6]: 24.4 nM; IC50 [1, 7]: 21 nM; IC50 ([2]; Daudi growth inhibition, elsamitrucin alone, one value per plate, Table 8 (Supplement), read-out: Dm Value (95% Confidence Interval), Individually, Elsamitrucin): 23 nM and 30 nM and 28 nM and 15 nM and 13 nM and 34 nM and 26 nM; IC50 ([2]; Daudi growth inhibition, elsamitrucin alone, one value per plate, Table 8, read-out: Dm Value (95% Confidence Interval), Individually, Elsamitrucin): 30 nM and 28 nM and 13 nM and 34 nM and 26 nM and 23 nM; IC50 [2, 8]: 12 nM; IC50 ([2]; Homo sapiens, Daudi, SPA-15 (Daudi-e03), single agent, dilution 1:1.5 (elsamitrucin 1:1.33), read-out: CalcuSyn Dm): 46 nM; IC50 ([2]; Homo sapiens, Daudi, SPA-15 (Daudi-e03), single agent, dilution 1:1.5 (elsamitrucin 1:1.33), read-out: Prism IC50): 40 nM; IC50 [2, 9]: 33 nM; IC50 ([2]; Homo sapiens, Daudi, single agent, ten assays of Table 8, read-out: average Dm): 27 nM; IC50 ([2]; Homo sapiens, Daudi, single agent, ten assays of Table 8, read-out: range of Dm): 13 to 34 nM; IC50 ([3]; HT29, single agent on the same plate as the combination, read-out: Dm Value, Individually, Elsamitrucin): 36 nM and 118 nM and 96 nM and 58 nM and 54 nM and 67 nM and 39 nM and 40 nM and 103 nM and 51 nM and 37 nM and 29 nM and 86 nM and 73 nM and 50 nM and 71 nM and 124 nM and 32 nM and 27 nM; IC50 ([3]; Homo sapiens, HT-29, HT29, Table 1, read-out: average Dm determined in the preliminary experiments): 77 nM; IC50 ([3]; Homo sapiens, HT-29, HT29, single agent, ten selected assays of Table 2, read-out: average Dm): 63 nM; IC50 ([3]; Homo sapiens, HT-29, HT29, single agent, ten selected assays of Table 2, read-out: range of Dm): 36 to 118 nM; IC50 ([3]; Homo sapiens, HT-29, HT29 cells, single agent, read-out: average Dm): 63 nM; IC50 [3, 10]: 80 nM; IC50 [3, 11]: 81 nM; IC50 [3, 12]: 70 nM; IC50 [3, 13]: 77 nM

Q: `N.N.[Cl][Pt][Cl]` [Cisplatin, cisplatin] was tested. Which IC50 ([1]; SKMES growth inhibition, second agent alone, one value per plate (Experiment ID), read-out: Dm Value (95% Confidence Interval), Individually, Second Agent) did it give?
A: Its IC50 is 1670 nM.

Q: And the “decrease of Dm in the combination” value ([1]; SKMES, in combination with elsamitrucin versus single agent)?
A: The value was 47%.

Q: What about the IC50 ([1]; SKMES, single agent on the same plate as the combination, read-out: Dm Value, Individually, Second Agent) of the same compound?
A: The IC50 was 1670 nM.

Q: What about the IC50 ([1]; SPA-02 (SKMES-e22), single agent, dilution 1:3, read-out: Prism IC50) of the same compound?
A: The IC50 was 675 nM.

Q: What about the IC50 ([1]; SPA-03 (SKMES-e23), single agent, dilution 1:1.5, read-out: CalcuSyn Dm) of the same compound?
A: Its IC50 is 1180 nM.

Q: What about the IC50 ([1]; SPA-03 (SKMES-e23), single agent, dilution 1:1.5, read-out: Prism IC50) of the same compound?
A: Its IC50 is 1140 nM.

Q: What about the IC50 ([1]; average of preliminary single-agent experiments, SKMES, read-out: Average IC50, Dm value) of the same compound?
A: The IC50 was 1000 nM.

Q: What about the IC50 ([2]; Daudi growth inhibition, second agent alone, one value per plate, Table 8 (Supplement), read-out: Dm Value (95% Confidence Interval), Individually, Second Agent) of the same compound?
A: Its IC50 is 494 nM.

Q: What about the IC50 ([2]; Daudi growth inhibition, second agent alone, Table 8, read-out: Dm Value (95% Confidence Interval), Individually, Second Agent) of the same compound?
A: The IC50 was 494 nM.

Q: And the “decrease of Dm in the combination” value ([2]; Daudi, in combination with elsamitrucin versus single agent)?
A: The value was 59%.

Q: And the IC50 ([2]; Daudi, read-out: approximate Dm values for the second drugs as single agents)?
A: The IC50 was roughly 490 nM.

Q: And the IC50 ([2]; SPA-05 (Daudi-e01), single agent, dilution 1:3, read-out: Prism IC50)?
A: The IC50 was 367 nM.

Q: And the IC50 ([2]; SPA-08 (Daudi-e02), single agent, dilution 1:1.5, read-out: CalcuSyn Dm)?
A: The IC50 was 343 nM.

Q: And the IC50 ([2]; SPA-08 (Daudi-e02), single agent, dilution 1:1.5, read-out: Prism IC50)?
A: The IC50 was 344 nM.

Q: And the IC50 ([2]; average of preliminary single-agent experiments, Daudi, read-out: Average IC50, Dm value)?
A: Its IC50 is 351 nM.

Q: What about the “decrease of Dm in the combination” value ([3]; HT29, in combination with elsamitrucin versus single agent) of the same compound?
A: The value was 38%.

Q: And the IC50 ([3]; HT29, single agent on the same plate as the combination, read-out: Dm Value, Individually, Second Agent)?
A: The IC50 was 2330 nM and 1750 nM.

Q: What about the IC50 ([3]; SPA-01 (HT29-e21), single agent, dilution 1:3, read-out: Prism IC50) of the same compound?
A: Its IC50 is 1850 nM.

Q: What about the IC50 ([3]; SPA-04 (HT29-e22), single agent, dilution 1:1.5, read-out: CalcuSyn Dm) of the same compound?
A: Its IC50 is 1930 nM.

Q: What about the IC50 ([3]; SPA-04 (HT29-e22), single agent, dilution 1:1.5, read-out: Prism IC50) of the same compound?
A: Its IC50 is 1860 nM.

Q: And the IC50 ([3]; average of preliminary single-agent experiments, HT29, read-out: Average IC50, Dm value)?
A: Its IC50 is 1880 nM.
